Data taken from publication PMC5011342, “A high throughput drug screening assay to identify compounds that promote oligodendrocyte differentiation using acutely dissociated and purified oligodendrocyte precursor cells” (BMC Research Notes, 2016).
Read-outs that look alike come from different tables or passages of the source.

Tests used:
[1] = tested on: acutely dissociated and purified rat OPCs; assay: Acute OL differentiation assay (MBP expression/cell, immunofluorescent image quantification); assay type: cell-based; conditions: for activation at 2 µM / activation at 10 µM / activation at 0.4 µM: Rattus norvegicus
Outline: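 Oligodendrocyte precursor cells were enriched from P6-P7 Sprague–Dawley rat brains by immunopanning (RAN-2 and GalC depletion, O4 selection), plated at 5000 cells/well in serum-free, mitogen-free differentiation media on PDL/laminin 96-well view plates, centrifuged at 200×g, and pre-incubated 1–2 h before test compounds were added in quadruplicate. On DIV4, cells were fixed, stained for MBP and DAPI, imaged automatically, and MBP expression per cell was quantified.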

[2] = tested on: expanded OPCs; assay: cells; conditions: for viability at 0.1 µM / viability at 1 µM / viability at 10 µM: Rattus norvegicus, 72 h; for 0.1 µM (% DMSO) / 1 µM (% DMSO) / 10 µM (% DMSO): alamarBlue viability of expanded OPCs; for 0.1 µM (% DMSO): compound at 0.1 µM; for 1 µM (% DMSO): compound at 1 µM; for 10 µM (% DMSO): compound at 10 µM
Outline: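 Expanded OPCs seeded at 10,000 cells/well in differentiation media, then exposed to NCC library compounds at 10, 1 and 0.1 µM (quadruplicate, 0.1% DMSO) for three days. Viability read as alamarBlue fluorescence (560/590 nm) after 4 h at 37 °C; tunicamycin 5 ng/ml served as toxicity control.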

[3] = 2 uM test compound, relative to quetiapine, sheet "All OLga data", read-out: OL differentiation, 2 uM (% Quet)
[4] = 10 uM test compound, relative to quetiapine, sheet "All OLga data", read-out: OL differentiation, 10 uM (% Quet)
[5] = read-out: 0.1 µM (% DMSO), alamarBlue viability of expanded OPCs, compound at 0.1 µM, sheet All Tox data
[6] = read-out: 1 µM (% DMSO), alamarBlue viability of expanded OPCs, compound at 1 µM, sheet All Tox data
[7] = read-out: 10 µM (% DMSO), alamarBlue viability of expanded OPCs, compound at 10 µM, sheet All Tox data
[8] = test compound at 2 uM, MBP expression relative to quetiapine, NCC library screen, sheet "All OLga data", read-out: 2 uM (% Quet)
[9] = test compound at 10 uM, MBP expression relative to quetiapine, NCC library screen, sheet "All OLga data", read-out: 10 uM (% Quet)
[10] = 0.4 uM test compound, relative to quetiapine, sheet "All OLga data", read-out: OL differentiation, 0.4 uM (% Quet)
[11] = read-out: 0.1 µM (% DMSO), alamarBlue viability, NCC library compound at 0.1 µM, sheet "All Tox data"
[12] = read-out: 1 µM (% DMSO), alamarBlue viability, NCC library compound at 1 µM, sheet "All Tox data"
[13] = read-out: 10 µM (% DMSO), alamarBlue viability, NCC library compound at 10 µM, sheet "All Tox data"
[14] = test compound at 2 uM, NCC library screen, sheet "All OLga data", relative to quetiapine, read-out: 2 uM (% Quet)
[15] = test compound at 10 uM, NCC library screen, sheet "All OLga data", relative to quetiapine, read-out: 10 uM (% Quet)

In the case of `NC(=O)C[S+]([O-])C(c1ccccc1)c1ccccc1` (stereo not shown) [Modafinil], the activation at 2 µM [1, 3] is reported as 15.5%, the activation at 10 µM [1, 4] is reported as -30.2% and the viability at 0.1 µM [2, 5] is reported as 105%. It also gave a viability at 1 µM [2, 6] of 94.6% and a viability at 10 µM [2, 7] of 99.6%.
With `CCc1c(C)[nH]c2c1C(=O)C(CN1CCOCC1)CC2` (stereo not shown) [Molindone] the activation at 2 µM [1, 8] was 1.6%, the activation at 10 µM [1, 9] was -34.4% and the “0.1 µM (% DMSO)” value ([2]; relative to DMSO control) was 90.6 % DMSO. For the same compound, the “1 µM (% DMSO)” value ([2]; relative to DMSO control) was 95.4 % DMSO and the “10 µM (% DMSO)” value ([2]; relative to DMSO control) was 105.0 % DMSO.
Work on `CC(C)(O)c1ccccc1CC[C@@H](SCC1(CC(=O)O)CC1)c1cccc(/C=C/c2ccc3ccc(Cl)cc3n2)c1` [Montelukast] yielded an activation at 0.4 µM [1, 10] of 12.9%, an activation at 2 µM [1, 3] of -31.7% and a viability at 0.1 µM [2, 11] of 95.5%. The viability at 1 µM [2, 12] was 83% and the viability at 10 µM [2, 13] was 11%.
`CCOc1cc(N)c(Cl)cc1C(=O)NCC1CN(Cc2ccc(F)cc2)CCO1` (stereo not shown) [Mosapride] showed an activation at 2 µM [1, 3] of -17%, an activation at 10 µM [1, 4] of 4.4% and a viability at 0.1 µM [2, 5] of 102%. It also gave a viability at 1 µM [2, 6] of 104% and a viability at 10 µM [2, 7] of 130%.
Compound `COc1nc(C)nc(Cl)c1N=C1NCCN1` [Moxonidine] has an activation at 2 µM [1, 3] of -1.2%, an activation at 10 µM [1, 4] of -26.2% and a viability at 0.1 µM [2, 5] of 85.4%. It also gave a viability at 1 µM [2, 6] of 88.5% and a viability at 10 µM [2, 7] of 98.4%.
`C/C(=C\C(=O)OCCCCCCCCC(=O)O)C[C@@H]1OC[C@H](C[C@@H]2O[C@H]2[C@@H](C)[C@H](C)O)[C@@H](O)[C@H]1O` [Mupirocin] was tested, and the activation at 2 µM [1, 8] was -2.9%, the activation at 10 µM [1, 9] was 0.04% and the “0.1 µM (% DMSO)” value ([2]; relative to DMSO control) was 103.2 % DMSO. The “1 µM (% DMSO)” value ([2]; relative to DMSO control) was 108.1 % DMSO and the “10 µM (% DMSO)” value ([2]; relative to DMSO control) was 104.3 % DMSO.
For `CN1CC[C@@H](c2ccc(F)cc2)[C@H](COc2ccc3c(c2)OCO3)C1` [N-Methylparoxetine], the “OL differentiation, 0.4 uM (% Quet)” value ([1]; 0.4 uM test compound, relative to quetiapine, sheet "All OLga data") was -15.7 % Quet, the “OL differentiation, 2 uM (% Quet)” value ([1]; 2 uM test compound, relative to quetiapine, sheet "All OLga data") was -45.1 % Quet and the “0.1 µM (% DMSO)” value ([2]; sheet All Tox data) was 86.7 % DMSO. For the same compound, the “1 µM (% DMSO)” value ([2]; sheet All Tox data) was 60.7 % DMSO and the “10 µM (% DMSO)” value ([2]; sheet All Tox data) was 18.7 % DMSO.
In the case of `COc1ccc2cc(CCC(C)=O)ccc2c1` [Nabumetone], the activation at 2 µM [1, 14] is reported as 5.8%, the activation at 10 µM [1, 15] is reported as 14.1% and the viability at 0.1 µM [2, 11] is reported as 92%. It also gave a viability at 1 µM [2, 12] of 90.9% and a viability at 10 µM [2, 13] of 94.8%.
For `CC(C)(C)NCC(O)COc1cccc2c1CC(O)C(O)C2` (stereo not shown) [Nadolol], the activation at 2 µM [1, 14] was -14.4%, the activation at 10 µM [1, 15] was -35% and the “0.1 µM (% DMSO)” value ([2]; relative to DMSO control) was 102.3 % DMSO. The “1 µM (% DMSO)” value ([2]; relative to DMSO control) was 95.3 % DMSO and the “10 µM (% DMSO)” value ([2]; relative to DMSO control) was 94.0 % DMSO.
Compound `CCCCN1CCCC1CNC(=O)c1cc(C#N)c2ccccc2c1OC` (stereo not shown) [Nafadotride] has an activation at 0.4 µM ([1]; test compound at 0.4 uM, NCC library screen, sheet "All OLga data", relative to quetiapine, read-out: 0.4 uM (% Quet)) of 7.6%, an activation at 2 µM [1, 14] of 26.6% and a viability at 0.1 µM [2, 11] of 118%. It also gave a viability at 1 µM [2, 12] of 131% and a viability at 10 µM [2, 13] of 49.6%.
In the case of `CCOc1ccc2ccccc2c1C(=O)N[C@@H]1C(=O)N2[C@@H]1SC(C)(C)[C@@H]2C(=O)O` [Nafcillin], the activation at 2 µM [1, 14] is reported as -20.5%, the activation at 10 µM [1, 15] is reported as 0.11% and the “0.1 µM (% DMSO)” value ([2]; relative to DMSO control) is reported as 104.4 % DMSO. For the same compound, the “1 µM (% DMSO)” value ([2]; relative to DMSO control) was 94.8 % DMSO and the “10 µM (% DMSO)” value ([2]; relative to DMSO control) was 90.0 % DMSO.
`COc1ccccc1N1CCN(CC(O)COc2cccc3ccccc23)CC1` (stereo not shown) [Naftopidil] gave an activation at 0.4 µM [1, 10] of -7.9%, an activation at 2 µM [1, 3] of -49.3% and a viability at 0.1 µM [2, 5] of 96.2%. The viability at 1 µM [2, 6] was 87.5% and the viability at 10 µM [2, 7] was 26.4%.
Work on `Oc1ccc2c3c1O[C@H]1[C@@H](O)CC[C@@]4(O)[C@@H](C2)N(CC2CCC2)CC[C@]314` [Nalbufina] yielded an activation at 2 µM ([1]; read-out: OL differentiation, 2 uM (% Quet)) of -0.9%, an activation at 10 µM ([1]; read-out: OL differentiation, 10 uM (% Quet)) of 19.7% and a viability at 0.1 µM ([2]; read-out: 0.1 µM (% DMSO)) of 99%. For the same compound, the viability at 1 µM ([2]; read-out: 1 µM (% DMSO)) was 98.8% and the viability at 10 µM ([2]; read-out: 10 µM (% DMSO)) was 99.1%.
With `CCn1cc(C(=O)O)c(=O)c2ccc(C)nc21` [Nalidixic Acid] the activation at 2 µM [1, 8] was -14.9%, the activation at 10 µM [1, 9] was -17.1% and the “0.1 µM (% DMSO)” value ([2]; relative to DMSO control) was 93.0 % DMSO. For the same compound, the “1 µM (% DMSO)” value ([2]; relative to DMSO control) was 93.1 % DMSO and the “10 µM (% DMSO)” value ([2]; relative to DMSO control) was 92.5 % DMSO.
